What was measured:
Format in all cases: binding
Conditions in all cases: ✓ / X, key not given
[1] = system: 2β3α; test: Epitope mapping, PDGFRβ/α chimera
Experimental: (§1) Various chimeric constructs of PDGFRβ and PDGFRα were first made by domain swapping, starting from N-terminus to C-terminus with PDGFRβ domain(s) replacing PDGFRα domain(s). The PDGFRβ/α chimera were tested for the ability of 2C5 binding. Shorter versions of PDGFRβ, including D1D2, D2D3 and D1D2D3, were then made to confirm the 2C5 binding domains on PDGFRβ.

[2] = system: 3β2α; test: Epitope mapping, PDGFRβ/α chimera
Experimental: (§2) 2C5 binds to domain 1 (D1) and domain 2 (D2) of PDGFRβ. Various chimeric constructs of PDGFRβ and PDGFRα were first made by domain swapping, starting from N-terminus to C-terminus with PDGFRβ domain(s) replacing PDGFRα domain(s). The PDGFRβ/α chimera were tested for the ability of 2C5 binding. Shorter versions of PDGFRβ, including D1D2, D2D3 and D1D2D3, were then made to confirm the 2C5 binding domains on PDGFRβ.

[3] = system: 4β1α; test: Epitope mapping, PDGFRβ/α chimera
Experimental: as §2

[4] = molecular target: h5α (Homo sapiens, UniProt P16234); test: Epitope mapping
h5α, sequence (P16234 24-528 limits assumed): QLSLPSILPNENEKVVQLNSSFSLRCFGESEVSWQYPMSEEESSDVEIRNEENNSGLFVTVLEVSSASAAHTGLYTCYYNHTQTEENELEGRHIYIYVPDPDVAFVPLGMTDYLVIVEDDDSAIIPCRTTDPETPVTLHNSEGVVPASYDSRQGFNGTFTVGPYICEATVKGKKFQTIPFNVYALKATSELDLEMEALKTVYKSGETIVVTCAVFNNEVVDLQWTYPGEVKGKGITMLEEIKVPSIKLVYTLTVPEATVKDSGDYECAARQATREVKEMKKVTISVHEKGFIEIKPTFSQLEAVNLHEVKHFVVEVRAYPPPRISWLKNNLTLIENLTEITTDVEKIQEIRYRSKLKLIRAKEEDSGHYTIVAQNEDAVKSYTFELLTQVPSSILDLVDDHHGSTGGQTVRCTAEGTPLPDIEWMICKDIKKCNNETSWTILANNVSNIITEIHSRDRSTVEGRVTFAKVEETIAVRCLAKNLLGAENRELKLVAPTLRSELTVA
Experimental: as §1

[5] = molecular target: T1, m5β (Mus musculus, UniProt P05622); test: Epitope mapping
T1 sequence (P05622 32-531 limits assumed): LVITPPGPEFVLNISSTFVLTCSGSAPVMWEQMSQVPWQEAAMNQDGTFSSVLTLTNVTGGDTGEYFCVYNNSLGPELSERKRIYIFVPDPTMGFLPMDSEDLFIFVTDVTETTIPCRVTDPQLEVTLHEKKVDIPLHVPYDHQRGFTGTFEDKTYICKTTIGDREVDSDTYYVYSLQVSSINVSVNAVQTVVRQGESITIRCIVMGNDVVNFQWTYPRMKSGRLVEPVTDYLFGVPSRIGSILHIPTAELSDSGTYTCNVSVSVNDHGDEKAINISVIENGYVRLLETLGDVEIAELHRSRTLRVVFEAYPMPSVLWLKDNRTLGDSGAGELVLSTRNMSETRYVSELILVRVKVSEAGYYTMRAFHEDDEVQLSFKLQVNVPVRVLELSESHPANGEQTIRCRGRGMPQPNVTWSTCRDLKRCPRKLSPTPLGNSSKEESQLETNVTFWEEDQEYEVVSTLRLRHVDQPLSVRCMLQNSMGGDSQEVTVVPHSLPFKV
Experimental: as §2

[6] = system: β1-3; test: Epitope mapping, shorter version of PDGFRβ (D1D2D3)
Experimental: as §2

PDGF-BB: platelet-derived growth factor dimer, ligand of PDGFRβ and PDGFRα [reference compound]
✓: binding to 2β3α [1] | binding to 3β2α [2] | binding to 4β1α [3] | binding to h5α [4] | binding to m5β [5] | binding to β1-3 [6]

— patent US7740850B2, “PDGFRβ-specific antibodies” (ImClone, LLC, priority 2007, dated 2010)
